Laboratory results published in patent US11999718B2, “Pyrazole derivatives” (Aptabio Therapeutics Inc., priority 2021, dated 2024).

How the values were obtained:
[1] = test system: HL-60 cells differentiated into neutrophil cells; assay: ROS production induced by PMA in HL-60 cells differentiated into neutrophil cells; type: cell-based; settings: Homo sapiens, 0.5 h; differentiated HL-60 cells, compounds 0.5 uM (0.5 mM in the source) for 30 minutes, 200 nM PMA, L-012 luminescence
From the text: (§1) In order to confirm the effect of the compounds of Synthetic examples on ROS production from fibroblasts and specific substrate cells, ROS production was induced by stimulation of PMA (phorbol 12-myristate 13-acetate), TGF-β1, palmitate or high concentration-glucose, or the like, in HL-60 cells differentiated into neutrophil cells by DMSO treatment, NHLF (normal human lung fibroblast, Lonza), LX-2 (human hepatic stellate cells, Sigma), ARPE19 (human retinal pigment epithelial cell, ATCC), and KEL-FIB (Keloid fibroblast, ATCC) cells, and under this condition, the inhibitory effect of ROS production of the compounds of Synthetic Examples was observed.
HL-60 cells (human leukemia cells, ATCC) were suspended in a medium containing 1.25% DMSO (RPMI+10% FBS) and cultured under the condition of 5% CO2, 37° C. for 6 days, thereby inducing differentiation into neutrophil cells. […] Then, to each well comprising the cells and drug, 200 nM PMA was treated to induce ROS production, and such ROS production was measured by observing the luminescence level of each well using 100 μM L-012.

HFF-1 cells = assay: Collagen gel contraction induced by TGF-β1 in HFF-1 cells; type: cell-based, human; settings: HFF-1 cells in collagen gel, TGF-β1 10 ng/ml, 72 hours, FIG. 7
From the text: In order to confirm the effect of the compounds of Synthetic examples on differentiation of fibroblasts into myofibroblasts, the inhibitory effect of the compounds of Synthetic examples on the phenomenon of contraction of gel induced by interaction of human foreskin fibroblasts (HFF-1, ATCC) and collagen was observed.
The mixed solution of the HFF-1 cells and collagen (bovine type I collagen) prepared at a concentration of 3×10^6 cells/ml was aliquoted in a 24 well plate, respectively, and then cultured under the condition of 5% CO2, 37° C. for 1 hour to induce gel polymerization. Then, after suspending the gel attached on the plate from the plate using a spoon, a medium comprising TGF-β1 and Synthetic example compounds was added to each well. After culturing for 72 hours, the Synthetic example compounds were treated by 10, 20, 30, 40, 60 and 80 μM to measure the size of the gel, and thereby, the degree of contraction of the gel by drug treatment was confirmed.

LX-2 cells = assay: ROS production induced by PMA in LX-2 cells; type: cell-based, human; settings: FIG. 1
From the text: as §1
(§2) The NHLF (normal human lung fibroblast, Lonza), LX-2 (human hepatic stellate cells, Sigma), ARPE19 (human retinal pigment epithelial cell, ATCC), KEL-FIB (keloid fibroblast, ATCC) cells were suspended in a culture medium containing 10% FBS and aliquoted on a 96 well plate and then cultured under the condition of 5% CO2, 37° C. for 24 hours. After pre-treating the compounds of Synthetic examples at a concentration of 10, 20, 30, 40, 60 and 80 μM for 30 minutes to 1 hour, the ROS stimulus was treated to each well containing the cells and drug. After additional culturing for 48 hours, the ROS production level was confirmed using L-012 or DCF-DA.

IL-1β = assay: Expression of IL-1β induced by LPS in human-derived fibroblasts (RT-PCR); type: cell-based; settings: LX2, NHLF, ARPE19 and KEL-Fib cells, LPS 1 μg/ml 6 hours, 10 μM compound, FIG. 8
Method: After inoculating 2×10^5 cells in a 6 well plate and then culturing for 24 hours, they were further cultured in a serum-free culture solution for 16 hours and then the Synthetic example 1 Compound was pre-treated for 20 minutes according to each condition and inflammation reaction was induced with LPS (1 μg/ml) for 6 hours. The expression of IL-1β was confirmed using RT-PCR. Total RNA was separated from the cells using RNeasy mini kit (Qiagen), and for the separated RNA 2 ug, cDNA was synthesized using PrimeScript™ II 1st strand cDNA synthesis kit (TaKaRa) and then PCR was performed with AccuPower® PCR PreMix (Bioneer) to amplify genes. The nucleotide sequences for target primers are as follows. IL-1β (forward: 5′-[…]-3′(SEQ ID NO: 1), reverse: 5′-[…]-3′(SEQ ID NO: 2)); GAPDH (forward: 5′-[…]-3′(SEQ ID NO: 3), reverse: 5′-[…]-3′(SEQ ID NO: 4)); β-actin (forward: 5′-[…]-3′(SEQ ID NO: 5), reverse: 5′-[…]-3′(SEQ ID NO: 6)). The PCR product was confirmed by electrophoresis in 1.5% agarose gel.

IL-6 = assay: Expression of IL-6 in pancreatic cancer associated fibroblasts (ELISA); type: cell-based, human; settings: P.CAF cells, 48 hours treatment, FIG. 5
Method: (§3) In order to confirm the effect of the compounds of Synthetic examples of the present invention on inflammation reaction in cancer associated fibroblasts, whether the expression of IL6 and IL8 was inhibited by the compounds of Synthetic examples in pancreatic cancer associated fibroblasts (P.CAF) was observed.
(§4) After inoculating 1.5×10^5 cells in a 6 well plate and then culturing in P.CAF complete media for 48 hours, the compounds of Synthetic examples were treated by 10, 20, 30, 40, 60 and 80 μM for 48 hours according to each condition, and then the expression of IL-6 and IL-8 was confirmed by performing ELISA with Quantkine ELISA kit (R&D systems) as follows.
(§5) 100 μl of the culture solution in which the compounds of Synthetic examples were treated for 48 hours was added to the microplate strip for analysis including a 100 μl assay diluent and left at a room temperature for 2 hours and then the contents were removed, and then it was washed with 400 μl wash buffer 4 times. 200 μl of a human IL-6 or IL-8 conjugate was added and left at a room temperature for 2 hours and then the contents were removed, and then it was washed with 400 μl wash buffer 4 times. 200 μl of substrate solution was added and left at a room temperature for 20 minutes and then 50 μl of stop solution was added, and the absorbance at a wavelength of 450 nm was measured within 30 minutes to confirm the expression level of IL-6 and IL-8.

αSMA = assay: Expression of αSMA induced by TGF-β1 (immunocytochemistry); type: cell-based, human; settings: TGF-β1 10 ng/ml, 10 μM compound, FIG. 4
From the text: In order to confirm whether the compounds of Synthetic examples of the present invention affect differentiation of fibroblasts into myofibroblasts, the inhibitory effect of the compounds of Synthetic examples on increase in expression of αSMA (biomarker for confirming differentiation into myofibroblasts) induced by TGF-β1 on HFF-1 (human foreskin fibroblast, ATCC), NHLF (normal human lung fibroblast, Lonza), LX-2 (human hepatic stellate cells, Sigma), ARPE19 (human retinal pigment epithelial cell, ATCC), and KEL-FIB (Keloid fibroblast, ATCC) cells was to be observed.
Each cell was suspended in a DMEM medium containing 10% FBS and aliquoted at a concentration of 1×10^4 to 1.5×10^5 cells/well in a 4-well chamber slide (Nunc) and the compounds of Synthetic examples and TGF-β1 (both TGF β1 and TGF-β have the same meaning) were treated to prepare cells to be used for confirming αSMA expression. The confirmation of αSMA expression in the prepared cells was performed by immunocytochemistry as follows. For the cells, fixation with 4% paraformaldehyde for 10 minutes and permeabilization using 0.1% Triton x-100 were performed, and then processes of treating the primary antibody (anti-αSMA Ab, 1:200, at 4° C. for 16 hours) and secondary antibody (Alexa-594 conjugated Ab, 1:800, at a room temperature for 1 hour) against αSMA were progressed in order, and then the expression level of αSMA was observed using a fluorescence microscope.
FIG. 3 observes the effect of treating various compounds of Synthetic examples by 10, 20 and 40 μM, after inducing αSMA expression by treatment of TGF-β1(10 ng/ml) into HFF cells.

IL-8 = assay: Expression of IL-8 in pancreatic cancer associated fibroblasts (ELISA); type: cell-based, human; settings: P.CAF cells, 48 hours treatment, FIG. 6
Method: as §3, §4, §5

NHLF cells = assay: ROS production induced by PMA in NHLF cells; type: cell-based, human; settings: FIG. 1
From the text: as §1, §2

N27 cells = assay: ROS production induced by alpha-synuclein preformed fibril (PFF) in N27 cells; type: cell-based, rat; settings: 0.001 μM compound, 24 hours, CellROX-Deep Red, FIG. 2
Method: In order to confirm the effect of the compounds of Synthetic examples on ROS production from dopaminergic neural cells, ROS production was induced by alpha-synuclein preformed fibril (PFF) stimulation on N27 (rat dopaminergic neural cell, Sigma) cells and under this condition, the inhibitory effect of ROS production of the compounds of Synthetic examples was observed.
The N27 cells were cultured in RPMI medium containing 10% FBS, 1 μM angiotensin II, and the prepared cells were aliquoted at a concentration of 4×10^3 cells/well on a 6-well plate. The ROS production stimulus, PFF (preformed fibril) and the compounds of Synthetic examples were treated to the cells. After treating the compounds of Synthetic examples for 24 hours, fluorescence of each well was measured using CellROX-Deep Red reagent, thereby confirming the degree of ROS production.

CN(Cc1ccccc1)C1CCc2nn(-c3ccccn3)c(O)c2C1 (stereo not drawn) [Compound 1, 5-(Benzylmethylamino)-2-(pyridin-2-yl)-4,5,6,7-tetrahydro-2H-indazol-3-ol]
inhibition at 0.5 µM [1]: > 70% | contraction of the gel induced by TGF-β1 (HFF-1 cells): effectively inhibited | ROS production induced by PMA (LX-2 cells): inhibited | IL-1β induced by LPS (IL-1β): effectively inhibited in a concentration-dependent manner | IL-6 expressed in P.CAF (IL-6): effectively inhibited | increase in expression of αSMA induced by TGF-β1 (αSMA; ARPE19 cells): significantly inhibited | increase in expression of αSMA induced by TGF-β1 (αSMA; KEL-FIB cells): significantly inhibited | increase in expression of αSMA induced by TGF-β1 (αSMA; LX-2 cells): significantly inhibited | increase in expression of αSMA induced by TGF-β1 (αSMA; NHLF cells): significantly inhibited | IL-8 expressed in P.CAF (IL-8): effectively inhibited | ROS production induced by PMA (NHLF cells): inhibited

CN(Cc1ccc(S(C)(=O)=O)cc1)C1CCc2nn(-c3ccccn3)c(O)c2C1 (stereo not drawn) [Compound 12, 5-[(4-Methanesulfonylbenzyl)methylamino]-2-(pyridin-2-yl)-4,5,6,7-tetrahydro-2H-indazol-3-ol]
inhibition at 0.5 µM [1]: > 70% | contraction of the gel induced by TGF-β1 (HFF-1 cells): effectively inhibited | ROS production induced by PFF (N27 cells): effectively inhibited

CN1CCN(C2CCc3nn(-c4ccccn4)c(O)c3C2)CC1 (stereo not drawn) [Compound 16, 5-(4-Methylpiperazin-1-yl)-2-(pyridin-2-yl)-4,5,6,7-tetrahydro-2H-indazol-3-ol]
inhibition at 0.5 µM [1]: > 70% | contraction of the gel induced by TGF-β1 (HFF-1 cells): effectively inhibited | ROS production induced by PFF (N27 cells): effectively inhibited

OCCOCCN1CCN(C2CCc3nn(-c4ccccn4)c(O)c3C2)CC1 (stereo not drawn) [Compound 17, 5-{4-[2-(2-hydroxyethoxy)-ethyl]-piperazin-1-yl}-2-pyridin-2-yl-4,5,6,7-tetrahydro-2H-indazol-3-ol]
inhibition at 0.5 µM [1]: > 70% | ROS production induced by PMA (LX-2 cells): inhibited | ROS production induced by PMA (NHLF cells): inhibited

Oc1c2c(nn1-c1ccccn1)CCC(Nc1ccc(F)c(F)c1)C2 (stereo not drawn) [Compound 32, 5-(3,4-Difluorophenylamino)-2-(pyridin-2-yl)-4,5,6,7-tetrahydro-2H-indazol-3-ol]
inhibition at 0.5 µM [1]: 50 to 70% | ROS production induced by PFF (N27 cells): effectively inhibited

CN1CCN(C2CCc3nn(-c4ccc(C(F)(F)F)cn4)c(O)c3C2)CC1 (stereo not drawn) [Compound 82, 5-(4-Methylpiperazin-1-yl)-2-(5-(trifluoromethyl)pyridin-2-yl)-4,5,6,7-tetrahydro-2H-indazol-3-ol]
inhibition at 0.5 µM [1]: 50 to 70% | ROS production induced by PFF (N27 cells): effectively inhibited
